# Laboratory results reported in patent US6461997B1, “Triazole sulfones having herbicidal activity” (Monsanto Technology LLC, priority 1999, dated 2002).
# How the values were obtained:
# POLCO (wild buckwheat) = assay: Pre-emergence herbicidal activity, cool season; format: in vivo, Polygonum convolvulus; conditions: lowest tested rate with 80% or greater inhibition; rates 300, 100, 30, 10 g/ha; about 14 days
# Outline: (§1)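 Pre-emergence soil-surface spray; rates 300/100/30/10 g/ha; acetone:water 50:50 diluent. Warm-season species (PANMI, DIGSA) grown at 30/21 °C, cool-season species (ALOMY, POLCO) at 18/13 °C. Inhibition scored ~14 d after treatment versus untreated controls → GR80.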
# SASKR (russian thistle) = assay: Pre-emergence herbicidal activity, cool season; format: in vivo, Salsola kali; conditions: lowest tested rate with 80% or greater inhibition; rates 300, 100, 30, 10 g/ha; about 14 days
# Outline: (§2)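 GR80 values derive from percent inhibition relative to untreated plants, read roughly 14 days after sowing and pre-emergence soil-surface treatment (compound in 50:50 acetone/water; rates typically 10, 30, 100, 300 g/ha). Warm-season weeds grew at 30/21° C day/night, cool-season ones at 18/13° C; an asterisk marks activity without reaching 80% at the highest rate.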
# AVEFA (wild oat) = assay: Post-emergence herbicidal activity, cool season; format: in vivo, Avena fatua; conditions: abraded plants sprayed at 300, 100, 30 and 10 g/ha; about 14 days after treatment
# Protocol: (§3) In another set of tests, the post-emergence activity of compounds of this invention was evaluated on the cool season species listed above. The following procedure was used.
# (§4) A pre-prepared topsoil mixture (described above) was placed in a pot and compacted to a depth of 1.0 to 1.25 cm from the top of the pot. Seeds of each of several monocotyledonous and dicotyledonous annual plant species were placed on top of the soil. The seeds were covered with a mixture of 50% topsoil and 50% Rediearth™ in sufficient quantity to level-fill the pots. The pots were then placed on a greenhouse bench and subirrigated as needed.
# (§5) When plants growing from the seeds had emerged and reached a suitable growth stage for post-emergence treatment, typically 9 to 14 days after planting, above-ground parts of the plants were subjected to a pre-treatment involving abrasion to create greater opportunity for foliar uptake of subsequently applied compounds. Abrasion was performed using garnet 200w particles applied with a Sears Craftsman hand-held sandblaster operated at approximately 850 kPa (50 psig) pressure.
# (§6) A known amount of each test compound dissolved or suspended in an appropriate organic solvent was diluted with a 50:50 mix of acetone and water and applied to the plants by spraying with a standard spray nozzle in a spray volume of […] at a spray pressure of 511 kPa (30 psig). Only the compounds of Examples 1, 8-15 and 17-22 were included in post-emergence tests. Application rates for these compounds were 300, 100, 30 and 10 g/ha. Control plants were abraded but not sprayed.
# (§7) After treatment the plants were placed in a greenhouse with an 18/13° C. day/night temperature regime and were subsequently watered as needed for growth. Approximately 14 days after treatment, the plants were observed and herbicidal efficacy recorded as percent inhibition by comparison with control plants. GR80 values were assigned for each compound as described above for the pre-emergence tests.
# [1] = tested on: AGSST (creeping bentgrass); assay: Pre-emergence herbicidal activity, cool season; format: in vivo, Agrostis stolonifera; conditions: GR80 = lowest tested rate (300, 100, 30, 10 g/ha) with 80% or greater inhibition; approx. 14 days after treating; 18/13° C.
# Outline: as §2
# [2] = tested on: AEGCY (jointed goatgrass); assay: Post-emergence herbicidal activity, cool season; format: in vivo, Aegilops cylindrica; conditions: abraded plants sprayed at 300, 100, 30 and 10 g/ha; about 14 days after treatment
# Protocol: as §3, §4, §5, §6, §7
# LOLMG (annual ryegrass) = assay: Post-emergence herbicidal activity, cool season; format: in vivo, Lolium multiflorum; conditions: abraded plants sprayed at 300, 100, 30 and 10 g/ha; about 14 days after treatment
# Protocol: as §3, §4, §5, §6, §7
# [3] = tested on: LAMPU (purple deadnettle); assay: Pre-emergence herbicidal activity, cool season; format: in vivo, Lamium purpureum; conditions: lowest tested rate with 80% or greater inhibition; rates 300, 100, 30, 10 g/ha; about 14 days
# Outline: as §2
# [4] = tested on: PANMI (wild proso millet); assay: Pre-emergence herbicidal activity, warm season; format: in vivo, Panicum miliaceum; conditions: GR80 = lowest tested rate (300, 100, 30, 10 g/ha) with 80% or greater inhibition; approx. 14 days after treating; 30/21° C.
# Outline: as §1
# [5] = tested on: AGRRE (quackgrass (seedling)); assay: Post-emergence herbicidal activity, cool season; format: in vivo, Elymus repens; conditions: abraded plants sprayed at 300, 100, 30 and 10 g/ha; about 14 days after treatment
# Protocol: as §3, §4, §5, §6, §7
# SETVI (green foxtail) = assay: Post-emergence herbicidal activity, cool season; format: in vivo, Setaria viridis; conditions: abraded plants sprayed at 300, 100, 30 and 10 g/ha; about 14 days after treatment
# Protocol: as §3, §4, §5, §6, §7
# [6] = tested on: GALAP (catchweed bedstraw); assay: Post-emergence herbicidal activity, cool season; format: in vivo, Galium aparine; conditions: abraded plants sprayed; GR80 = lowest tested rate (300, 100, 30, 10 g/ha) with 80% or greater inhibition; approx. 14 days after treatment; 18/13° C.
# Protocol: as §3, §4
# as §5, with “pressure. […]” for “pressure.”
# as §7, with “GR80 values were assigned for each compound as described above for the pre-emergence tests.” left out
# STEME (common chickweed) = assay: Pre-emergence herbicidal activity, cool season; format: in vivo, Stellaria media; conditions: lowest tested rate with 80% or greater inhibition; rates 300, 100, 30, 10 g/ha; about 14 days
# Outline: as §2
# [7] = tested on: VERPE (creeping speedwell); assay: Pre-emergence herbicidal activity, cool season; format: in vivo, Veronica persicaria; conditions: lowest tested rate with 80% or greater inhibition; rates 300, 100, 30, 10 g/ha; about 14 days
# Outline: as §2
# [8] = tested on: BRAPP (broadleaf signalgrass); assay: Pre-emergence herbicidal activity, warm season; format: in vivo, Brachiaria platyphylla; conditions: GR80 = lowest tested rate (300, 100, 30, 10 g/ha) with 80% or greater inhibition; approx. 14 days after treating; 30/21° C.
# Outline: (§8)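 Seeds sown in sterilised fertilised topsoil received surface-applied compound in 50:50 acetone/water, typically at 300, 100, 30 and 10 g/ha, then greenhouse-grown at 30/21° C (warm-season species) or 18/13° C (cool-season species). Percent inhibition versus untreated plants was scored at about 14 days, giving GR80; an asterisk marks activity short of 80% at the top rate.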
# BROTE (downy brome) = assay: Post-emergence herbicidal activity, cool season; format: in vivo, Bromus tectorum; conditions: abraded plants sprayed at 300, 100, 30 and 10 g/ha; about 14 days after treatment
# Protocol: as §3, §4, §5, §6, §7
# [9] = tested on: GALAP (catchweed bedstraw); assay: Pre-emergence herbicidal activity, cool season; format: in vivo, Galium aparine; conditions: lowest tested rate with 80% or greater inhibition; rates 300, 100, 30, 10 g/ha; about 14 days
# Outline: as §2
# [10] = tested on: AGSST (creeping bentgrass); assay: Post-emergence herbicidal activity, cool season; format: in vivo, Agrostis stolonifera; conditions: abraded plants sprayed at 300, 100, 30 and 10 g/ha; about 14 days after treatment
# Protocol: as §3, §4, §5, §6, §7
# ALOMY (blackgrass) = assay: Post-emergence herbicidal activity, cool season; format: in vivo, Alopecurus myosuroides; conditions: abraded plants sprayed at 300, 100, 30 and 10 g/ha; about 14 days after treatment
# Protocol: as §3, §4, §5, §6, §7
# SINAR (wild mustard) = assay: Pre-emergence herbicidal activity, cool season; format: in vivo, Sinapis arvensis; conditions: lowest tested rate with 80% or greater inhibition; rates 300, 100, 30, 10 g/ha; about 14 days
# Outline: as §2
# ECHCG (barnyardgrass) = assay: Pre-emergence herbicidal activity, warm season; format: in vivo, Echinochloa crus-galli; conditions: GR80 = lowest tested rate (300, 100, 30, 10 g/ha) with 80% or greater inhibition; approx. 14 days after treating; 30/21° C.
# Outline: as §8
# SORVU (shattercane) = assay: Pre-emergence herbicidal activity, warm season; format: in vivo, Sorghum vulgare; conditions: GR80 = lowest tested rate (300, 100, 30, 10 g/ha) with 80% or greater inhibition; approx. 14 days after treating; 30/21° C.
# Outline: as §8
smiles,measurement,setting,value
"CCN(CC)C(=O)n1cnc(S(=O)(=O)C(F)(F)SCCO)n1 [Example 12, 1-(N,N-diethylcarbamoyl)-3-[(2-hydroxyethylthio)difluoromethylsulfonyl]-1,2,4-triazole]","Pre-emergence activity GR80, POLCO",POLCO (wild buckwheat),[empty]
same,"Pre-emergence activity GR80, SASKR",SASKR (russian thistle),[empty]
same,"Post-emergence activity GR80, AVEFA",AVEFA (wild oat),[empty]
same,Pre-emergence activity (GR80) AGSST,[1],300 g/ha
same,"Post-emergence activity GR80, AEGCY",[2],[empty]
same,"Post-emergence activity GR80, LOLMG",LOLMG (annual ryegrass),[empty]
same,"Pre-emergence activity GR80, LAMPU",[3],300 g/ha
same,Pre-emergence activity (GR80) PANMI,[4],"* (activity observed, at least at highest rate, but <80% inhibition)"
same,"Post-emergence activity GR80, AGRRE",[5],[empty]
same,"Post-emergence activity GR80, SETVI",SETVI (green foxtail),[empty]
same,Post-emergence activity (GR80) GALAP,[6],300 g/ha
same,"Pre-emergence activity GR80, STEME",STEME (common chickweed),300 g/ha
same,"Pre-emergence activity GR80, VERPE",[7],[empty]
same,Pre-emergence activity (GR80) BRAPP,[8],"* (activity observed, at least at highest rate, but <80% inhibition)"
same,"Post-emergence activity GR80, BROTE",BROTE (downy brome),[empty]
same,"Pre-emergence activity GR80, GALAP",[9],[empty]
same,"Post-emergence activity GR80, AGSST",[10],[empty]
same,"Post-emergence activity GR80, ALOMY",ALOMY (blackgrass),[empty]
same,"Pre-emergence activity GR80, SINAR",SINAR (wild mustard),[empty]
same,Pre-emergence activity (GR80) ECHCG,ECHCG (barnyardgrass),"* (activity observed, at least at highest rate, but <80% inhibition)"
same,Pre-emergence activity (GR80) SORVU,SORVU (shattercane),"* (activity observed, at least at highest rate, but <80% inhibition)"
